{"source": "paper PMC8640678", "about": "(Journal of Pesticide Science, 2021)", "key": {"HcbA3C-His [1]": {"biological_target": "HcbA3C-His", "assay": "spectrofluorometric titration", "format": "binding, Nocardioides sp. PD653", "conditions": "oxidized FMN; no NADH stated; cited from earlier work"}, "HcbA3C-His [2]": {"tested_on": "HcbA3C-His", "assay": "NADH oxidation at […] nm, steady-state fit", "format": "biochemical, Nocardioides sp. PD653", "conditions": "1–8 µM FMN, 10–120 µM NADH, 25 nM enzyme; ping-pong; cited from earlier work"}, "HcbB3 with HcbB2": {"biological_target": "T1, HcbB3 with HcbB2 (Nocardioides sp. PD653, UniProt A0A1V1W0L1)", "T1 sequence (A0A1V1W0L1 1-506)": "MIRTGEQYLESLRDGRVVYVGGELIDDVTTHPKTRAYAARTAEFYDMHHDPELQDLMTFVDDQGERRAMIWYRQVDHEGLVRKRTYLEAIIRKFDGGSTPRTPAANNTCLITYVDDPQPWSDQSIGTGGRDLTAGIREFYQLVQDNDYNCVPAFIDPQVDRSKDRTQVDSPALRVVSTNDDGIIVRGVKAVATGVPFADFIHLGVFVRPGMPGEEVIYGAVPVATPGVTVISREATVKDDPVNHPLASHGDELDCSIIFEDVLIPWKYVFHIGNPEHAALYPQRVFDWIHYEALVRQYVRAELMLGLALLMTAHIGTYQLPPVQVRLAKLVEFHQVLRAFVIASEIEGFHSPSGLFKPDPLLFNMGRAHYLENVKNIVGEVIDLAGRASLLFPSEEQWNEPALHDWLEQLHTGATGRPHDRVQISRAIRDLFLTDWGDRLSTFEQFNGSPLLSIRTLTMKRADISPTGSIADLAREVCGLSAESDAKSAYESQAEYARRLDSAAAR", "assay": "PCP dissipation by recombinant E. coli cells", "format": "cell-based", "conditions": "co-expressed HcbB2; whole cells"}}}
{"smiles": "Cc1cc2nc3c(=O)[nH]c(=O)nc-3n(C[C@H](O)[C@H](O)[C@H](O)COP(=O)(O)O)c2cc1C", "note": "[FMN]", "values": [{"measurement": "Kd", "setting": "HcbA3C-His [1]", "value": "750 ± 170", "unit": "nM"}, {"measurement": "Km", "setting": "HcbA3C-His [2]", "value": "4.43 ± 0.69", "unit": "µM"}]}
{"smiles": "Oc1c(Cl)c(Cl)c(Cl)c(Cl)c1Cl", "note": "[PCP]", "values": [{"measurement": "PCP dissipation by recombinant E. coli cells", "setting": "HcbB3 with HcbB2", "value": "co-expression of hcbB1 and hcbB3 or hcbB2 and hcbB3 led to significant PCP dissipation activity"}]}
{"smiles": "NC(=O)C1=CN([C@@H]2O[C@H](COP(=O)(O)OP(=O)(O)OC[C@H]3O[C@@H](n4cnc5c(N)ncnc54)[C@H](O)[C@@H]3O)[C@@H](O)[C@H]2O)C=CC1", "note": "[NADH]", "values": [{"measurement": "Km", "setting": "HcbA3C-His [2]", "value": "51.7 ± 11.6", "unit": "µM"}]}
